Test results from PubChem BioAssay AID588339 (The Scripps Research Institute Molecular Screening Center, 2011).
The source made the active and inactive calls. How the calls were made is not given here.

Tested on: TLR9-MyD88 CHO cells, cytotoxicity, luminescence
Experiment: CHO cell viability loss, potency, luminescence, cytotoxicity control for TLR9-MyD88 binding inhibitor project, dose response (AID 588339)

`C[CH2][Hg][S]c1ccccc1C(=O)O` gave an IC50 of 0.921 µM.
For `COc1cc(/C=C/C(=O)/C=C(O)/C=C/c2ccc(O)c(OC)c2)ccc1O`, the IC50 was 34.6 µM (inactive).
